Experimental data from the CheMixHub drug solubility set.

Test: xn = mol fraction of the nth substance listed, in the solute-free solvent

CC1CCC2C(C)C(OC(=O)CCC(=O)O)OC3OC4(C)CCC1C32OO4 (configuration not stated) + CO + O
solubility (g/100 g solution)
Settings | 278.15 K | 283.15 K | 288.15 K | 293.15 K | 298.15 K | 303.15 K | 308.15 K | 313.15 K | 318.15 K
x2 = 0.05887 | 0.112 | 0.144 | 0.181 | 0.228 | 0.276 | 0.346 | 0.424 | 0.514 | 0.625
x2 = 0.1235 | 0.366 | 0.464 | 0.566 | 0.693 | 0.82 | 0.997 | 1.19 | 1.41 | 1.67
x2 = 0.1941 | 0.818 | 0.996 | 1.2 | 1.44 | 1.67 | 1.99 | 2.35 | 2.73 | 3.17
x2 = 0.2725 | 1.42 | 1.69 | 2 | 2.36 | 2.71 | 3.17 | 3.68 | 4.22 | 4.83
x2 = 0.36 | 2.09 | 2.46 | 2.87 | 3.34 | 3.8 | 4.37 | 5.01 | 5.65 | 6.39
x2 = 0.4579 | 2.79 | 3.23 | 3.73 | 4.29 | 4.84 | 5.49 | 6.23 | 6.99 | 7.79
x2 = 0.5666 | 3.54 | 4 | 4.58 | 5.22 | 5.83 | 6.54 | 7.36 | 8.18 | 9.06
x2 = 0.6924 | 4.36 | 4.87 | 5.46 | 6.22 | 6.9 | 7.65 | 8.52 | 9.37 | 10.3
x2 = 0.8362 | 5.15 | 5.63 | 6.33 | 7.1 | 7.82 | 8.58 | 9.48 | 10.4 | 11.2

CC1CCC2C(C)C(OC(=O)CCC(=O)O)OC3OC4(C)CCC1C32OO4 (configuration not stated) + CCO + O
solubility (g/100 g solution)
Settings | 278.15 K | 283.15 K | 288.15 K | 293.15 K | 298.15 K | 303.15 K | 308.15 K | 313.15 K | 318.15 K
x2 = 0.04179 | 0.113 | 0.146 | 0.183 | 0.23 | 0.279 | 0.348 | 0.427 | 0.517 | 0.627
x2 = 0.08949 | 0.369 | 0.462 | 0.563 | 0.69 | 0.817 | 0.994 | 1.19 | 1.41 | 1.66
x2 = 0.1436 | 0.816 | 0.995 | 1.19 | 1.43 | 1.66 | 1.97 | 2.32 | 2.69 | 3.12
x2 = 0.2067 | 1.38 | 1.65 | 1.94 | 2.29 | 2.62 | 3.07 | 3.55 | 4.06 | 4.64
x2 = 0.2813 | 1.97 | 2.33 | 2.69 | 3.13 | 3.56 | 4.1 | 4.66 | 5.26 | 5.94
x2 = 0.3699 | 2.54 | 2.92 | 3.37 | 3.87 | 4.36 | 4.95 | 5.59 | 6.25 | 6.96
x2 = 0.4771 | 3.08 | 3.48 | 3.92 | 4.47 | 5.03 | 5.67 | 6.34 | 7.03 | 7.74
x2 = 0.6102 | 3.61 | 4.02 | 4.51 | 5.11 | 5.67 | 6.29 | 6.98 | 7.63 | 8.37
x2 = 0.7797 | 4.05 | 4.46 | 4.95 | 5.55 | 6.12 | 6.72 | 7.39 | 8.06 | 8.72

FC(F)(F)c1cccnc1Cl + CCOC(C)=O + CCCCO
solubility (g/100 g solution)
Settings | 263.15 K | 268.15 K | 273.15 K | 278.15 K | 283.15 K | 288.15 K | 293.15 K | 298.15 K | 303.15 K
x2 = 0.2518 | 27.4 | 32.6 | 37.9 | 43.8 | 50.9 | 57.7 | 64.8 | 71.6 | 77.6
x2 = 0.4023 | 33.5 | 38.3 | 42.5 | 49.6 | 54.8 | 61.4 | 68 | 74.3 | 80.5
x2 = 0.5999 | 37.2 | 42.5 | 47.4 | 53.5 | 60.2 | 66.6 | 72.6 | 78.8 | 84.3
x2 = 0.7998 | 42.4 | 47.7 | 52.6 | 59 | 64.3 | 70.8 | 76.8 | 82.4 | 87.4

Cl.N=C(N)NC(=N)N1CCOCC1 + O + CC(C)O
solubility (g/100 g solution)
Settings | x2 = 0.1 | x2 = 0.2 | x2 = 0.3 | x2 = 0.4 | x2 = 0.5 | x2 = 0.6 | x2 = 0.7 | x2 = 0.8 | x2 = 0.9
283.15 K | 0.441 | 0.892 | 2.04 | 4.24 | 8.16 | 13.2 | 19.8 | 25.8 | 35
293.15 K | 0.499 | 1.2 | 2.75 | 5.73 | 10.6 | 15.4 | 23.9 | 30.8 | 37.5
303.15 K | 0.607 | 1.51 | 3.56 | 7.55 | 13.8 | 20.6 | 29.6 | 36.8 | 44.3
313.15 K | 0.831 | 1.73 | 4.8 | 9.86 | 17.4 | 23.7 | 34.9 | 42.9 | 50.8
323.15 K | 1.11 | 2.09 | 5.83 | 12.6 | 21.2 | 30 | 39.1 | 45.7 | 55.9

C#CC1(O)C=CC2C3CCC4=CC(=O)CCC4C3CCC21CC (configuration not stated) + O + CO
288.15 K
Settings | solubility (g/100 g solution)
x2 = 0.165 | 4.27
x2 = 0.3077 | 3.7
x2 = 0.4325 | 1.93
x2 = 0.5424 | 1.49
x2 = 0.6401 | 1
x2 = 0.8058 | 0.438
x2 = 0.8767 | 0.371
x2 = 0.9412 | 0.371

CCOC(=O)OC1=C(c2cc(C)ccc2C)C(=O)NC12CCC(OC)CC2 (configuration not stated) + CC(C)O + O
solubility (g/100 g solution)
Settings | 278.15 K | 283.15 K | 288.15 K | 293.15 K | 298.15 K | 303.15 K | 308.15 K | 313.15 K | 318.15 K
x2 = 0.2 | 0.638 | 0.86 | 1.19 | 1.61 | 2.18 | 2.85 | 3.73 | 4.8 | 6.15
x2 = 0.4 | 2.55 | 2.99 | 3.88 | 5 | 6.36 | 8.23 | 10.4 | 13.1 | 16.5
x2 = 0.6 | 3.11 | 3.92 | 5.04 | 6.01 | 7.67 | 9.71 | 12.3 | 15.4 | 19.1
x2 = 0.8 | 2.53 | 3.07 | 3.85 | 5.03 | 6.44 | 8.1 | 10.2 | 13.2 | 16.5
